According to patent US11040958B2, “Triazole antimicrobial derivative, pharmaceutical composition and use thereof” (priority 2017, dated 2021):

Columns and labels:
[1] = Pharmacokinetics after single gastrointestinal (gavage) administration in rats (plasma voriconazole); type: in vivo; conditions: SD rats, 2.5 mg/kg (calculated as voriconazole)
Procedure: Dosing volume for administration: 10 ml/kg
Solvent medium for administration: except for the positive voriconazole group using CMC-Na, the other groups using normal saline
Route of administration: gavage

[2] = In vitro metabolic stability in human plasma; type: in vitro ADME; conditions: 37°C, compound 10 μM
Procedure: (§1) The two reaction systems were set up three samples in parallel, while each sample was taken in an amount of 100 μL at 1 min, 2 mins, 5 mins, 15 mins, and 30 mins after the reaction, added to the centrifuge tube containing 400 μL of 0° C. pre-cooled internal standard working fluid and terminated the reaction. The sample was mixed by vortex for 1 min, centrifuged at 10,000×g for 10 mins in a 4° C. pre-cooled high-speed centrifuge. The supernatant was taken for HPLC detection.

[3] = Solid stability test (25°C, RH 60%, 30 days); type: physicochemical; conditions: 25°C±2°C, relative humidity 60%±2%
Procedure: Experimental conditions: 25° C.±2° C., relative humidity 60%±2%
Experimental instrument: Agilent 1260 HPLC; chamber for stability test
Experimental method: each compound of the present disclosure was packaged (the inner packaging material was a penicillin bottle; the outer packaging material was a double-layer aluminum foil bag, and a desiccant was added inside and outside the package), placed in the chamber for stability test, at a temperature of 25° C.±2° C. and a relative humidity of 60%±2%. The degradation situation of the compounds for 30 days was examined. The contents of total impurities before and after 30 days of each compound were compared and the results were as follows: […]

[4] = system: Candida albicans ATCC10231; assay: Systemic fungal infection in mice, administration by gavage, survival; type: in vivo; conditions: ICR mice, 5 mg/kg (calculated as voriconazole) once daily for 5 days
Procedure: ICR mice, weighing 18-22 g, male, provided by the Hubei Experimental Animal Center.
The standard strain Candida albicans was purchased from the American Type Culture Collection, and the strain number was ATCC10231.
Before the experiment, a small amount of Candida albicans was picked from the SDA medium preserved at 4° C. by inoculation circle, inoculated into 1 ml of YPD culture medium, and cultured at 30° C. while being shaken at 200 rpm for 16 hours to make the fungus in the late stage of exponential growth. Blood cell counting plate was used to count, and the concentration of the broth was adjusted to 1*10^3−5*10^3 CFU/ml with RPMI1640 medium. The Candida albicans monoclone on the SDA plate was picked, inoculated into 1 ml YPD medium, cultured at 35° C., 200 rpm for 16 hours to the late exponential growth phase, 1% of which was then inoculated in fresh medium for 6 hours, centrifuged at 1000×g for 5 mins, washed three times with saline until the supernatant was colorless, while hemocytometer was used to count. The cell concentration was adjusted to 5*10^6/ml. The tail vein injection of 0.1 ml/10 g was carried out to cause a systemic fungal infection in mice. The mice were randomized into groups of 10 each. Voriconazole used was in the form of a suspension prepared with CMC-Na (Shanghai Panhong Chemical Technology Co., Ltd.), while other tested drugs were dissolved in saline and sonicated until clarified for administration. After establishing a systemic fungal infection model in mice for 2 hours, each group was administered by gavage with 5 mg/kg (calculated as voriconazole) drug, with the volume for administration of 0.1 ml/10 g. The mice in the model group were administered 0.1 ml/10 g of 0.9% sodium chloride solution, once daily, for 5 consecutive days. The death situation of the mice was inspected and the survival time was recorded. After a total of 7 days of observation, all dead mice were treated with fire using ethanol.

[5] = In vitro metabolic stability in human intestinal S9; type: in vitro ADME; conditions: 37°C, S9 1 mg/mL, compound 10 μM, NADPH regeneration system
Procedure: as §1, with “detection. […] Concentration of mother liquor of compounds: 1 mM […] [table]” for “detection.”

[6] = Solubility test in deionized water (HPLC, external calibration); type: physicochemical; conditions: deionized water, 25±2°C
Procedure: Experimental condition: 25±2° C.
Dissolving medium: deionized water
Experimental method: 1 mg voriconazole and appropriate amount of each compound were weighed, placed in 1 ml deionized water separately, shaken vigorously for 30 s every 5 mins for 30 mins.

[7] = In vitro metabolic stability in rat intestinal S9; type: in vitro ADME; conditions: 37°C, S9 1 mg/mL, compound 10 μM, NADPH regeneration system
Procedure: as §1, with “detection. […] Concentration of mother liquor of compounds: 1 mM […] [table]” for “detection.”

[8] = In vitro metabolic stability in rat plasma; type: in vitro ADME; conditions: 37°C, compound 10 μM
Procedure: as §1, with “detection. […] Concentration of mother liquor of compounds: 1 mM […]” for “detection.”

[9] = Pharmacokinetics after single intravenous administration in rats (plasma voriconazole); conditions: rat, in vivo, 2.5 mg/kg
Outline: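 SD rats (180–220 g, 3 male/3 female per group) given single tail-vein dose of 2.5 mg/kg (as voriconazole). Plasma voriconazole measured in blood sampled at multiple time points post-dose.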

For `CC(OC(=O)N(C)c1ncccc1COC(=O)[C@@H](N)CCCN)[n+]1cnn(C[C@](O)(c2ccc(F)cc2F)[C@@H](C)c2ncncc2F)c1.Cl.Cl.Cl.[Br-]` (stereo partly shown) [QR16008], the AUClast [1] was 8745 ± 2365 ng·h/mL, the Cmax [1] was 825 ± 256 ng/mL and the T1/2 [1] was 2.65 ± 0.58 h. The “Human plasma T1/2” value [2] was 9.49 ± 1.31 min, the “Content increase of total impurity (25° C., placed for 30 days)” value [3] was 1.05% and the “survival rate of mice, day 1” value [4] was 100%. The “survival rate of mice, day 2” value [4] was 100%, the “survival rate of mice, day 3” value [4] was 100% and the “survival rate of mice, day 4” value [4] was 100%. The “survival rate of mice, day 5” value [4] was 90%, the “survival rate of mice, day 6” value [4] was 80% and the “survival rate of mice, day 7” value [4] was 80%. The “Human intestinal S9 T1/2” value [5] was 30.25 ± 4.90 min, the Solubility [6] was over 50 mg/mL and the “Rat intestinal S9 T1/2” value [7] was 32.52 ± 7.82 min. The “Rat plasma T1/2” value [8] was 10.58 ± 2.95 min.

With `CC(OC(=O)N(C)c1ncccc1COC(=O)CN(C)C)[n+]1cnn(C[C@](O)(c2ccc(F)cc2F)[C@@H](C)c2ncncc2F)c1.Cl.Cl.[Cl-]` (stereo partly shown) [QR16045] the AUClast [1] was 7859 ± 2256 ng·h/mL, the Cmax [1] was 562 ± 158 ng/mL and the T1/2 [1] was 2.59 ± 0.88 h. For the same compound, the AUClast [9] was 8586 ± 1856 ng·h/mL, the T1/2 [9] was 2.74 ± 0.78 h and the “Human plasma T1/2” value [2] was 8.95 ± 0.12 min. The “Content increase of total impurity (25° C., placed for 30 days)” value [3] was 2.23%, the “survival rate of mice, day 1” value [4] was 100% and the “survival rate of mice, day 2” value [4] was 100%. The “survival rate of mice, day 3” value [4] was 90%, the “survival rate of mice, day 4” value [4] was 90% and the “survival rate of mice, day 5” value [4] was 90%. The “survival rate of mice, day 6” value [4] was 90%, the “survival rate of mice, day 7” value [4] was 80% and the “Human intestinal S9 T1/2” value [5] was 32.97 ± 8.45 min. For the same compound, the Solubility [6] was over 50 mg/mL, the “Rat intestinal S9 T1/2” value [7] was 27.85 ± 6.58 min and the “Rat plasma T1/2” value [8] was 8.88 ± 0.55 min.
